# In PubChem BioAssay AID2423 (Broad Institute, 2010):
# Values joined by “and” are separate entries in the source; they are usually repeats but may differ in a detail not shown here. Identical values can stand only once. Records with an inconclusive call do not appear. Active and inactive are the calls of the source. How the calls were made is not given here.
# Test system: C. albicans CaCi-8 + fluconazole, Alamar Blue growth, 48 h
# Experiment: resistant C. albicans growth inhibition with fluconazole, dose response, CaCi-8 strain, Alamar Blue fluorescence (AID 2423)
row,SMILES,EC50
1,C[C@H]([C@@H](N)C(=O)N[C@@H](C(=O)O)[C@@H]1O[C@H](n2ccc(=O)[nH]c2=O)[C@@H](O)[C@H]1O)[C@@H](O)c1ccc(O)cn1,3160 nM
2,CN1CCN(Cc2cc(COCc3ccccc3)c3cccnc3c2O)CC1,1460 nM
3,COc1ccccc1NS(=O)(=O)c1cc(NC(=O)CCC(=O)c2cccs2)ccc1Cl,> 15000 nM (inactive)
4,CCCNC(=O)c1ccc2c(=O)c(O)c(-c3cccc(Br)c3)[nH]c2c1,3040 nM
5,CCn1cc(C(=O)OCC(=O)Nc2cccc(Cl)c2Cl)c(=O)c2ccc(C)nc21,> 15000 nM (inactive)
6,CCN(c1ccccc1)S(=O)(=O)c1ccc(Cl)c(NC(=O)CN2C(=O)NC3(CCCC3)C2=O)c1,> 15000 nM (inactive)
7,COc1ccc(/C=N/OCC(=O)Nc2nc3ccccc3s2)cc1,3050 nM
8,Oc1ccc(Cl)cc1C1=NNC(c2cc(Br)cc3c2OCOC3)C1 (centres undefined),> 16000 nM (inactive)
9,COc1ccc(C(=O)NC(=S)NNC(=O)c2ccc3ccccc3n2)cc1,583 nM
10,FC(F)(F)COc1nc(OCC(F)(F)F)nc(N2CCN(c3ccccc3)CC2)n1,> 16000 nM (inactive)
11,S=C(Nc1ccc(Cl)cc1)c1nc2ccccc2[nH]1,1640 nM
12,O=Nc1c(O)n(Cc2ccc(Cl)c(Cl)c2)c2ccccc12,5900 nM
13,CC(C)(C)c1ccc(Cc2n[nH]c(=S)[nH]c2=O)cc1,351 nM
14,COc1ccc(-n2c(=O)c3c4c(sc3n3c(=S)[nH]nc23)CCCC4)cc1,744 nM
15,COc1ccc(OC)c(/C=C2\SC(=S)N(NS(=O)(=O)c3ccc(C)cc3)C2=O)c1,1130 nM
16,Oc1ccc(N=Nc2nccs2)c(O)c1,7250 nM
17,Oc1ccc(N=Nc2ccccc2C(F)(F)F)c2cccnc12,1080 nM
18,NC[C@@H]1O[C@H](C23CC4CC(CC(C4)C2)C3)Cc2c1ccc(O)c2O,3360 nM
19,Cc1noc2ncnc(Sc3ccc(Cl)cc3)c12,2930 nM
20,COc1ccccc1C(=O)NNC(=S)NC(=O)c1cc(OC)c(OC)c(OC)c1,9620 nM
21,N#CC1=C(N)Oc2c(ccc3cccnc23)C1c1cccnc1 (centres undefined),8920 nM
22,CCOc1ccc(/C=C/C2=CC(C)(C)NC(=S)N2)cc1,1160 nM

row,SMILES,EC50
1,CCOc1cc(N2CCOCC2)c(OCC)cc1NC(=O)COc1cccc2cccnc12,> 15000 nM (inactive)
2,O=C(OCn1ncc(Cl)c(Cl)c1=O)c1cccc(C(F)(F)F)c1,2460 nM
3,CC(C)(C)c1ccc(OCc2ccc(C(=O)N/N=C/c3ccc(O)c(O)c3)cc2)cc1,3080 nM
4,O=C(Nc1cccc(NC(=O)c2ccccc2Cl)c1)c1ccc([N+](=O)[O-])o1,716 nM
5,O=C(CCS(=O)(=O)c1cccc2nsnc12)N1CCN(C(=O)c2ccco2)CC1,> 16000 nM (inactive)
6,Cc1cccc(NC(=S)NNC(=O)c2cc3c(s2)CCC(C)C3)c1C (centres undefined),1370 nM
7,CCc1nnc(NC(=O)Cn2ccc(C(F)(F)F)n2)s1,> 15000 nM (inactive)
8,Oc1c(Br)cc(Br)cc1/C=N/Nc1ccc(Cl)nn1,237 nM
9,CN(C)c1cc(N/N=C/c2ccc(Cl)cc2)nc(N(C)C)n1,695 nM
10,Oc1ccc(N=Nc2ccc3c(c2)OCCO3)c2ncccc12,709 nM
11,Cc1ccc2nc(-c3ccc(NC(=S)NC4CC(C)(C)NC(C)(C)C4)cc3)sc2c1,1900 nM
12,O=C(ONC1=NCCCCC1)c1cccc([N+](=O)[O-])c1,969 nM
13,COc1cc2c(cc1O)CC[n+]1cc3c(OC)c(OC)ccc3cc1-2,> 16000 nM (inactive)
14,Cc1ccc(-c2cc(-c3ccc(C)cc3)[n+](C)o2)cc1,> 16000 nM (inactive)
15,Cc1ccsc1C(=O)OCC(=O)Nc1nnc(-c2ccccc2)o1,3120 nM
16,CNC(=S)N1N=C(c2ccccc2)CC1c1ccccc1Cl (centres undefined),> 16000 nM (inactive)
17,O=S(=O)(O)c1cccc2c(N=Nc3ccc(O)c4ncccc34)cccc12,> 16000 nM (inactive)
18,COCCNC(=O)NC12CC3CC(CC(C3)C1)C2,> 16000 nM (inactive)
19,O=C(c1ccc2c(c1)OCO2)N1CCC2(CC1)Oc1ccc(F)cc1C(=O)C21CC(c2cccnc2)=NO1 (centres undefined),402 nM
20,CC1(C)COCN1S(=O)(=O)c1ccc(C(=O)Nc2nnc(-c3ccc(Cl)s3)o2)cc1,484 nM
21,CNC(=S)/N=C/NOCc1ccc(Cl)cc1Cl,460 nM
22,Cc1cccc(NC(=S)NNC(=O)c2csc(C(C)C)c2)c1,4240 nM

row,SMILES,EC50
1,CN1/C(=C/C(=O)c2cccs2)Sc2ccccc21,841 nM
2,O=C(NCCc1ccccc1)c1c(O)c2cccc3c2n(c1=O)CC3,> 15000 nM (inactive)
3,COCCN(C(=O)CSc1nnc(-c2cccc(C)c2)n1C)c1c(N)n(Cc2ccccc2)c(=O)[nH]c1=O,> 16000 nM (inactive)
4,CCCC(=O)NC(c1ccccc1Cl)c1ccc2cccnc2c1O (centres undefined),516 nM
5,COc1cc(C(Nc2ccccn2)c2ccc3ccc(C)nc3c2O)cc(OC)c1O (centres undefined),2020 nM
6,CCN1/C(=C/C(C)=C/c2sc3ccccc3[n+]2CC)Sc2ccccc21,< 120 nM
7,CC(Nc1ncnc2ccccc12)c1ccccc1 (centres undefined),606 nM
8,COc1ccc(/C=N\NC(=O)c2cc(O)c(O)c(O)c2)cc1CN1CCN(c2ccc(F)cc2)CC1,1580 nM
9,O=C(c1ccco1)N1CCN(c2ncnc3c(-c4ccccc4)nsc23)CC1,1260 nM
10,O=S(=O)(Nc1nc2ccccc2s1)c1ccc(Br)s1,1730 nM
11,O=C(CCl)N(c1ccc(Cl)cc1)c1c[nH]c2ccccc12,6410 nM
12,CN1CCc2cc3c(c4c2C1Cc1ccccc1-4)OCO3 (centres undefined),> 15000 nM (inactive)
13,c1cnc2c(c1)ccc1cccnc12,10500 nM and 9350 nM
14,C=CCNC(=S)N/N=C(\C)c1ccccn1,2300 nM
15,COc1ccc(-c2c[n+]3c(n2-c2ccccc2)CCCCC3)cc1,9580 nM
16,CN(C)c1cc[n+](CC(=O)c2ccc(-c3ccccc3)cc2)cc1,4980 nM
17,CCN(CC)c1ccc(/C=C/c2ccc3ccc(OC)cc3[n+]2CC)cc1,149 nM
18,[O-][n+]1cccc2c(Br)cc(Br)c(O)c21,652 nM
19,C/C(=C\C(=O)OCCCCCCCCC(=O)O)C[C@@H]1OC[C@H](C[C@@H]2O[C@H]2[C@@H](C)[C@H](C)O)[C@@H](O)[C@H]1O,> 15000 nM (inactive)
20,O=C(CC1CC2CCC1C2)Nc1nc(-c2ccccn2)cs1 (centres undefined),641 nM
21,CCc1ccc(/C=C2/SC(=S)N(CCCC(=O)Nc3ccccc3C(=O)O)C2=O)cc1,982 nM
22,Cc1nc2ccccc2cc1OCc1ccc(F)cc1,909 nM

row,SMILES,EC50
1,CCCC(=O)NC(c1ccc(C(C)C)cc1)c1ccc2cccnc2c1O (centres undefined),659 nM
2,COc1cc2ccccc2cc1C(=O)NNC(=O)c1ccccc1O,8440 nM
3,CC(C)COCc1ccc(O)c2ncccc12,1470 nM
4,CCOC(=O)CSc1ccc(C(=O)N2CCN(C)CC2)cc1[N+](=O)[O-],> 16000 nM (inactive)
5,CC(C)CCNCC(=O)NC(c1ccccc1)c1ccccc1,> 16000 nM (inactive)
6,CCCCn1c(=O)[nH]c(=O)c2c1nc(-c1ccc(-c3ccccc3Br)o1)n2CC,> 15000 nM (inactive)
7,O=C1C2CCCN2C(c2ccccc2)N1c1ccccn1 (centres undefined),> 16000 nM (inactive)
8,Cc1ccc(C2C3CSCC=C3C(C#N)=C(N)C2(C#N)C#N)cc1 (centres undefined),16300 nM
9,O=C(C[n+]1ccccc1)N/N=C/c1cccs1,> 15000 nM (inactive)
10,Cn1c(SCC(=O)N2CCCc3ccccc32)nnc1-c1ccccc1,> 16000 nM (inactive)
11,Cc1onc(-c2ccccc2)c1C(=O)N/N=C(\N)COc1ccc(Cl)cc1,14200 nM
12,O=C(CSc1nnc(-c2ccco2)n1Cc1ccccc1)OC1CCCCC1,> 15000 nM (inactive)
13,C=CCc1cccc(/C=N/NC(=O)CNc2ccccc2OC)c1O,12500 nM
14,COc1cc(/C=C(\C#N)c2nc3ccccc3[nH]2)ccc1O,1490 nM
15,CCC(=O)NC(c1ccc(C)cc1)c1cc([N+](=O)[O-])c2cccnc2c1O (centres undefined),513 nM
16,O=c1ccc(N=Nc2ccccc2)ccc1O,879 nM
17,Cc1cc(/C=N/NC(N)=S)c(C)n1-c1cccc(Cl)c1,1650 nM
18,C(#Cc1ccccc1)C[N+]1(CC#Cc2cccc3ccccc23)CCCC1,5640 nM
19,COCCSc1nnc(NC(=O)C2CC(=O)N(c3ccc(C)cc3)C2)s1 (centres undefined),> 16000 nM (inactive)
20,CN(Cc1ccccc1)S(=O)(=O)c1ccc(C(=O)Nc2nnc(C3CC3)o2)cc1,291 nM
21,Cc1cc(C(C#N)c2ccccc2F)n2ncnc2n1 (centres undefined),895 nM
22,COc1ccccc1/C=C1\SC(=S)N(NS(=O)(=O)c2ccccc2)C1=O,1110 nM

row,SMILES,EC50
1,Cc1cc(OCC(=O)NNC(=S)NC(=O)c2cccs2)ccc1Cl,1660 nM
2,O=C(Nc1cccc(-c2nc3ccccc3s2)c1)c1cc(-n2cnnc2)ccc1Cl,1510 nM
3,COc1ccccc1NC(=O)CN1CCN(c2ccccc2OC)CC1,> 16000 nM (inactive)
4,O=C(NNC(=S)NC(=O)C12CC3CC(CC(C3)C1)C2)c1ccncc1,4640 nM
5,O=C(CCS(=O)(=O)c1ccccc1)Nc1ncc([N+](=O)[O-])s1,> 15000 nM (inactive)
6,Cc1ccc(C)c(N=Nc2ccc(O)c3ncccc23)c1,716 nM
7,CC(=O)c1cccc(NC(=S)NC(=O)c2ccc(C)cc2)c1,3850 nM
8,CC1=C(C(N)=O)C(c2ccc(C)o2)C(C(N)=O)=C(C)N1,> 16000 nM (inactive)
9,C=C(C)COc1ccc(-c2n[nH]c(C)c2-c2ccccc2)c(O)c1,4290 nM
10,Cc1ccc(-n2c(C)cc(/C([O-])=C(/C(=S)Nc3ccc(F)c(Cl)c3)[n+]3ccccc3)c2C)cc1,> 16000 nM (inactive)
11,CCCc1ccc(Oc2cn[nH]c2-c2ccc(O)cc2O)cc1,8050 nM
12,CC(=O)c1ncnn1CC(=O)c1ccc(Cl)cc1Cl,> 16000 nM (inactive)
13,CN1CCN(CC(=O)N2CCn3c4c(c5cc(C6CCCCC6)ccc53)CCCC42)CC1 (centres undefined),4190 nM
14,CN1CCN(C(c2ccccn2)c2cc(Cl)c3cccnc3c2O)CC1 (centres undefined),1170 nM
15,O=C(Cc1ccc(Cl)cc1)NNC(=S)NC(=O)c1cccs1,1570 nM
16,COC(=O)c1ccc(COc2ccc(/C=C(\C#N)c3nc4ccccc4[nH]3)cc2OC)o1,2620 nM
17,Cc1cc(C)n(-c2nc3ccccc3c(=O)n2OCC#N)n1,456 nM
18,O=C(CC(NCCN1CCOCC1)C(=O)O)Nc1cccc(Cl)c1 (centres undefined),> 16000 nM (inactive)
19,O=C(c1ccccc1)c1ccc2nc(-c3ccc(NC(=O)c4ccccc4Br)cc3)[nH]c2c1,377 nM
20,Cc1cccc(C2CC3(CC(C)(C)NC(=S)N3)Oc3cc(O)ccc32)c1 (centres undefined),3970 nM
21,CC(=O)N(Cc1ccc(F)cc1)C1=C(NCCc2ccccc2)C(=O)c2ccccc2C1=O,330 nM
